What was measured:
[1] = target: T1, CYCLIN K (nuclear staining in CAL-120 cells) (Homo sapiens, UniProt O75909); assay: CYCLIN K nuclear protein level: immunofluorescence high content analysis (CAL-120); format: cell-based; details: 24 h, 50% reduction of nuclear CCNK staining intensity, median, read-out: CYCLIN K degradation IF, DC50-[mol/l] (median)
T1 construct: endogenous in cells; host or cells: CAL-120 human breast cancer cells (DSMZ ACC 459)
Summary of the method: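 Readout is automated confocal image analysis of nuclear cyclin K immunofluorescence (Hoechst nuclei) after PFA fixation. Cells were CAL-120, exposed to compound dose-response 24 h at 37 °C; values are DC50 for halving nuclear CCNK signal relative to DMSO and control wells.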

CDK2/CycE = target: T2, CDK2/CycE (Homo sapiens, UniProt P24941); assay: CDK2/CycE kinase assay (TR-FRET, 2 mM ATP); format: biochemical; details: 2 mM ATP (high ATP); median; read-out: CDK2/CyclinE, 2 mM ATP (high ATP), IC50 (median)
T2 construct: purchased ProQinase GmbH (Freiburg, Germany); host or cells: insect cells (Sf9)
Summary of the method: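 Biotin-peptide phosphorylation (0.75 µM substrate, 2 mM ATP final, 25 min, 22 °C) by Sf9-expressed GST-CDK2/GST-CycE, after a 15-min compound pre-binding step. Inhibition scaled between enzyme-free (100%) and uninhibited (0%) wells.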

[2] = test system: BRCA1 mRNA expression in CAL-120 cells; assay: qRT-PCR assay: BRCA1 mRNA expression in CAL-120; format: cell-based; details: Homo sapiens; Inhibition of BRCA1 mRNA expression in CAL-120 cells; median; read-out: RTqPCR-CAL-120, IC50, BRCA1 (median)
Summary of the method: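 Human breast cancer cells, 200,000/well, were treated with test agents for 24 h without interruption after a 24 h settling period. Gene expression came from qPCR on cDNA made from 600 ng RNA, relative to GAPDH.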

T1 sequence (O75909 whole entry): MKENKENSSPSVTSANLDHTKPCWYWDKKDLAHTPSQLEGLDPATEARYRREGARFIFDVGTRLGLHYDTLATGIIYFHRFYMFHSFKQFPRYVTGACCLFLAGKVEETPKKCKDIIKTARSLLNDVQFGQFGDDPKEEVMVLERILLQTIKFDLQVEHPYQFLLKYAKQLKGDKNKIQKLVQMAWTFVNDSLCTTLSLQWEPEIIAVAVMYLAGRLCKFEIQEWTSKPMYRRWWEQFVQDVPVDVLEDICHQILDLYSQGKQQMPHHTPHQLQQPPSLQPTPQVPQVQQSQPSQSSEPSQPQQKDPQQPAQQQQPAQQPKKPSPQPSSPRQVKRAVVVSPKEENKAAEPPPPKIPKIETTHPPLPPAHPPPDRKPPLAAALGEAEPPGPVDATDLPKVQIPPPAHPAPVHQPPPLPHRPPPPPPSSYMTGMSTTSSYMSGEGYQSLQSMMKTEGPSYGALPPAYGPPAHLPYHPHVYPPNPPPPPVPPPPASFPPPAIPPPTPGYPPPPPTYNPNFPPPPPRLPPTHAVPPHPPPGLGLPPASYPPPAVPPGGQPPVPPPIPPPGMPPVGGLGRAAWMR
T1 sequence (Q9NYV4 whole entry partner): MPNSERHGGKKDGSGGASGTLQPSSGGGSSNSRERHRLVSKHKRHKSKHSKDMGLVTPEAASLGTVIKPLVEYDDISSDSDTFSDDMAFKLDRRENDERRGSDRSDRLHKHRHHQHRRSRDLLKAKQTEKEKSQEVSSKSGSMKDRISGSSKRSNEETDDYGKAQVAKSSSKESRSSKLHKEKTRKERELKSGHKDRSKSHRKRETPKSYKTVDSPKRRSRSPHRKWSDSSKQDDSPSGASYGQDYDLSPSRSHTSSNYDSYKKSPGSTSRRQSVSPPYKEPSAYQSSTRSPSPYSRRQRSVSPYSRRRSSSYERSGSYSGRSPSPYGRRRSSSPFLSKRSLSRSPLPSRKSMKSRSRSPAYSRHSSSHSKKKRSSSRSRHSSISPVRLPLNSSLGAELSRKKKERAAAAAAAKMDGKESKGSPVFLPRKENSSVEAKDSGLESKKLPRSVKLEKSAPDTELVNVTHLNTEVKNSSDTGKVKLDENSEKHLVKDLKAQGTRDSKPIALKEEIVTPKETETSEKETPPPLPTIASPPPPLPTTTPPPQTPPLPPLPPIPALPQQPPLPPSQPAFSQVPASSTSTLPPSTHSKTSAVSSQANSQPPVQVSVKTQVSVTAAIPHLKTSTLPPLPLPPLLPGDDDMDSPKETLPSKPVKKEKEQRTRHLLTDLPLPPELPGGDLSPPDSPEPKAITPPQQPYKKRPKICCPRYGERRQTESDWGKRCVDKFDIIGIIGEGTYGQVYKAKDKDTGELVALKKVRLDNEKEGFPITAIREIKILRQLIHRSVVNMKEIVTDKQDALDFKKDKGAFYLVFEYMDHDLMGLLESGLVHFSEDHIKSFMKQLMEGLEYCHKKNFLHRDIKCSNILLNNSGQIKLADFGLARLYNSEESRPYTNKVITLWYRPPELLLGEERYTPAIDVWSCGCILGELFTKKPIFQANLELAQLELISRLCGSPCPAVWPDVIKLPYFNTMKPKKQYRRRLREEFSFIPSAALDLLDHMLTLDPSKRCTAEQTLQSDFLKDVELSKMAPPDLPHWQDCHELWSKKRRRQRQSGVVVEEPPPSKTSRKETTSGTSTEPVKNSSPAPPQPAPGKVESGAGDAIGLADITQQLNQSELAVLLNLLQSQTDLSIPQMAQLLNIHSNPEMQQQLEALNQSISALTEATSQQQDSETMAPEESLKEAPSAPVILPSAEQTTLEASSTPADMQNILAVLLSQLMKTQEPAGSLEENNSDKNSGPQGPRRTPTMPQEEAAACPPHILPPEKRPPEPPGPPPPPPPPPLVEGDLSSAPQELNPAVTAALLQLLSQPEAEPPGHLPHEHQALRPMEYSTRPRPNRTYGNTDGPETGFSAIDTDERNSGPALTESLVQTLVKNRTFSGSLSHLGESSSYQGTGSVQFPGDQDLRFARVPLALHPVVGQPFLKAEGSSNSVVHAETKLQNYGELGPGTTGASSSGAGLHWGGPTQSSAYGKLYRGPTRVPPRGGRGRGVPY

| Structure (SMILES) | DC50 [1] [nM] | IC50 (CDK2/CycE) [nM] | IC50 [2] [nM] |
| --- | --- | --- | --- |
| CN1C2CCC1CN(c1nc(NCc3nc4c(F)c(F)ccc4[nH]3)n3ncc(C(F)(F)F)c3n1)C2 [Example 356, N-[(4,5-difluoro-1H-benzimidazol-2-yl)methyl]-2-(8-methyl-3,8-diazabicyclo[3.2.1]octan-3-yl)-8-(trifluoromethyl)pyrazolo[1,5-a][1,3,5]triazin-4-amine] | 2.01 | > 20000 | – |
| CN(CC(C)(C)O)c1nc(NCc2nc3c(F)c(Cl)ccc3[nH]2)n2ncc(Br)c2n1 [Example 374, 1-[(8-bromo-4-{[(5-chloro-4-fluoro-1H-benzimidazol-2-yl)methyl]amino}pyrazolo[1,5-a][1,3,5]triazin-2-yl)(methyl)amino]-2-methylpropan-2-ol] | 0.345 | 3120 | – |
| CC(C)c1cnn2c(NCc3ncc(-c4ccccc4)[nH]3)nc(N3CCN(C)CC3)nc12 [Example 31, 2-(4-methylpiperazin-1-yl)-N-[(5-phenyl-1H-imidazol-2-yl)methyl]-8-(propan-2-yl)pyrazolo[1,5-a][1,3,5]triazin-4-amine] | – | 17500 | 54.9 |
| CN(CC(C)(C)O)c1nc(NCc2nc3cc(C(F)(F)F)ccc3[nH]2)n2ncc(Br)c2n1 [Example 345, 1-{[8-bromo-4-({[5-(trifluoromethyl)-1H-benzimidazol-2-yl]methyl}amino)pyrazolo[1,5-a][1,3,5]triazin-2-yl](methyl)amino}-2-methylpropan-2-ol] | 0.698 | 6070 | – |
| Cc1cc2nc(CNc3nc(N4CC5CCC(C4)N5)nc4c(C5CC5)cnn34)[nH]c2cc1C [Example 326, 8-cyclopropyl-2-(3,8-diazabicyclo[3.2.1]octan-3-yl)-N-[(5,6-dimethyl-1H-benzimidazol-2-yl)methyl]pyrazolo[1,5-a][1,5]triazin-4-amine] | 0.654 | 4140 | – |
| Fc1cc2nc(CNc3nc(N4CC5CCC(C4)N5)nc4c(Br)cnn34)[nH]c2cc1Cl [Example 348, 8-bromo-N-[(6-chloro-5-fluoro-1H-benzimidazol-2-yl)methyl]-2-(3,8-diazabicyclo[3.2.1]octan-3-yl)pyrazolo[1,5-a][1,3,5]triazin-4-amine] | 1.17 | 13200 | – |
| Fc1ccc2[nH]c(CNc3nc(N4CC5CCC(C4)N5)nc4c(Cl)cnn34)nc2c1F.O=CO [Example 360, formic acid 8-chloro-2-(3,8-diazabicyclo[3.2.1]octan-3-yl)-N-[(4,5-difluoro-1H-benzimidazol-2-yl)methyl]pyrazolo[1,5-a][1,3,5]triazin-4-amine] | 0.709 | 12100 | – |
| Fc1cc2nc(CNc3nc(N4CC5CCC(C4)N5)nc4c(C5CC5)cnn34)[nH]c2cc1F [Example 325, 8-cyclopropyl-2-(3,8-diazabicyclo[3.2.1]octan-3-yl)-N-[(5,6-difluoro-1H-benzimidazol-2-yl)methyl]pyrazolo[1,5-a][1,5]triazin-4-amine] | 0.53 | > 20000 | – |
| CN1C2CCC1CN(c1nc(NCc3nc4c(F)cccc4[nH]3)n3ncc(C(F)(F)F)c3n1)C2 [Example 384, N-[(4-fluoro-1H-benzimidazol-2-yl)methyl]-2-(8-methyl-3,8-diazabicyclo[3.2.1]octan-3-yl)-8-(trifluoromethyl)pyrazolo[1,5-a][1,3,5]triazin-4-amine] | 0.662 | > 20000 | – |
| Brc1cnn2c(NCc3nc4ccccc4[nH]3)nc(N3CCN4CCC3CC4)nc12 [Example 349, N-[(1H-benzimidazol-2-yl)methyl]-8-bromo-2-(1,4-diazabicyclo[3.2.2]nonan-4-yl)pyrazolo[1,5-a][1,3,5]triazin-4-amine] | 0.784 | 1820 | – |
| Fc1c(Cl)ccc2[nH]c(CNc3nc(N4CC5CCC(C4)N5)nc4c(C5CC5)cnn34)nc12 [Example 379, N-[(5-chloro-4-fluoro-1H-benzimidazol-2-yl)methyl]-8-cyclopropyl-2-(3,8-diazabicyclo[3.2.1]octan-3-yl)pyrazolo[1,5-a][1,3,5]triazin-4-amine] | 0.404 | 14300 | – |
| Cc1cc2nc(CNc3nc(N(C)CC(C)(C)O)nc4c(Br)cnn34)[nH]c2cc1C [Example 343, 1-[(8-bromo-4-{[(5,6-dimethyl-1H-benzimidazol-2-yl)methyl]amino}pyrazolo[1,5-a][1,3,5]triazin-2-yl)(methyl)amino]-2-methylpropan-2-ol] | 0.0978 | 1190 | – |
| Clc1cc2nc(CNc3nc(N4CC5CCC(C4)N5)nc4c(Br)cnn34)[nH]c2cc1Cl [Example 334, 8-bromo-2-(3,8-diazabicyclo[3.2.1]octan-3-yl)-N-[(5,6-dichloro-1H-benzimidazol-2-yl)methyl]pyrazolo[1,5-a][1,3,5]triazin-4-amine] | 2.06 | 10500 | – |

The remaining lines, values ahead:

| DC50 [1] [nM] | IC50 (CDK2/CycE) [nM] | IC50 [2] [nM] | Structure (SMILES) |
| --- | --- | --- | --- |
| 0.17 | 6570 | – | CN(CC(C)(C)O)c1nc(NCc2nc3cc(F)c(Cl)cc3[nH]2)n2ncc(Br)c2n1 [Example 338, 1-[(8-bromo-4-{[(6-chloro-5-fluoro-1H-benzimidazol-2-yl)methyl]amino}pyrazolo[1,5-a][1,3,5]triazin-2-yl)(methyl)amino]-2-methylpropan-2-ol] |
| 0.053 | 2940 | – | Cc1cc2nc(CNc3nc(N4CCN(C)CC4)nc4c(Br)cnn34)[nH]c2cc1C [Example 342, 8-bromo-N-[(5,6-dimethyl-1H-benzimidazol-2-yl)methyl]-2-(4-methylpiperazin-1-yl)pyrazolo[1,5-a][1,3,5]triazin-4-amine] |
| 0.0805 | 7500 | – | CN1CCN(c2nc(NCc3nc4c(F)c(Cl)ccc4[nH]3)n3ncc(Br)c3n2)CC1 [Example 373, 8-bromo-N-[(5-chloro-4-fluoro-1H-benzimidazol-2-yl)methyl]-2-(4-methylpiperazin-1-yl)pyrazolo[1,5-a][1,3,5]triazin-4-amine] |
| 0.392 | 12400 | – | CN1CCN(c2nc(NCc3nc4cc(C(F)(F)F)ccc4[nH]3)n3ncc(Br)c3n2)CC1 [Example 344, 8-bromo-2-(4-methylpiperazin-1-yl)-N-{[5-(trifluoromethyl)-1H-benzimidazol-2-yl]methyl}pyrazolo[1,5-a][1,3,5]triazin-4-amine] |
| 0.652 | > 20000 | – | CN1CCN(c2nc(NCc3nc4c(F)c(Cl)ccc4[nH]3)n3ncc(C4CC4)c3n2)CC1 [Example 371, N-[(5-chloro-4-fluoro-1H-benzimidazol-2-yl)methyl]-8-cyclopropyl-2-(4-methylpiperazin-1-yl)pyrazolo[1,5-a][1,3,5]triazin-4-amine] |
| 0.369 | 17800 | – | CN1CCN(c2nc(NCc3nc4cc(F)c(Cl)cc4[nH]3)n3ncc(Br)c3n2)CC1 [Example 337, 8-bromo-N-[(6-chloro-5-fluoro-1H-benzimidazol-2-yl)methyl]-2-(4-methylpiperazin-1-yl)pyrazolo[1,5-a][1,3,5]triazin-4-amine] |
| 0.29 | 9360 | – | Fc1cc2nc(CNc3nc(N4CCOCC4)nc4c(Br)cnn34)[nH]c2cc1F [Example 341, 8-bromo-N-[(5,6-difluoro-1H-benzimidazol-2-yl)methyl]-2-(morpholin-4-yl)pyrazolo[1,5-a][1,3,5]triazin-4-amine] |
| 0.44 | 7310 | – | CN(CC(C)(C)O)c1nc(NCc2nc3cc(Cl)c(Cl)cc3[nH]2)n2ncc(Br)c2n1 [Example 331, 1-[(8-bromo-4-{[(5,6-dichloro-1H-benzimidazol-2-yl)methyl]amino}pyrazolo[1,5-a][1,3,5]triazin-2-yl)(methyl)amino]-2-methylpropan-2-ol] |
| 0.227 | 3650 | – | Fc1c(Cl)ccc2[nH]c(CNc3nc(N4CCOCC4)nc4c(Br)cnn34)nc12 [Example 372, 8-bromo-N-[(5-chloro-4-fluoro-1H-benzimidazol-2-yl)methyl]-2-(morpholin-4-yl)pyrazolo[1,5-a][1,3,5]triazin-4-amine] |
| 0.16 | 13800 | – | CN1CCN(c2nc(NCc3nc4cc(Cl)c(Cl)cc4[nH]3)n3ncc(Br)c3n2)CC1 [Example 330, 8-bromo-N-[(5,6-dichloro-1H-benzimidazol-2-yl)methyl]-2-(4-methylpiperazin-1-yl)pyrazolo[1,5-a][1,3,5]triazin-4-amine] |
| 0.52 | 8950 | – | Fc1cc2nc(CNc3nc(N4CCOCC4)nc4c(Br)cnn34)[nH]c2cc1Cl [Example 336, 8-bromo-N-[(6-chloro-5-fluoro-1H-benzimidazol-2-yl)methyl]-2-(morpholin-4-yl)pyrazolo[1,5-a][1,3,5]triazin-4-amine] |
| 4.1 | 7280 | – | CC(C)c1cnn2c(NCc3ncc(-c4ccccc4)[nH]3)nc(N3CCOCC3)nc12 [Example 30, 2-(morpholin-4-yl)-N-[(5-phenyl-1H-imidazol-2-yl)methyl]-8-(propan-2-yl)pyrazolo[1,5-a][1,3,5]triazin-4-amine] |
| 0.552 | 11900 | – | Fc1ccc2[nH]c(CNc3nc(N4CCOCC4)nc4c(Cl)cnn34)nc2c1F [Example 357] |

— US20230117034A1, “PYRAZOLOTRIAZINES” (Bayer Aktiengesellschaft, priority 2019, published 2023)
